Each compound was assayed against T1, BACE1 (Homo sapiens, UniProt P56817) (assay: Cellular Aβ-lowering assay (Aβ40 ELISA)). Settings: HEK293 cells stably expressing human APP wt (APP695); Aβ40 in supernatant after 18-20 hrs; read-out: BACE1 cell act. Aβ40 IC50.
T1 construct: Human HEK293 cells which are stably transfected with a vector expressing a cDNA of the human APP wt gene (APP695); endogenous in cells; host or cells: HEK293 stably transfected with human APP695 wt
Type: cell-based
How it was run: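 Secreted Aβ40 in the supernatant was measured by sandwich ELISA (C-terminal Aβ40 capture, HRP-4G8 detection, 450 nm) against an Aβ peptide standard curve.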

T1 sequence (P56817 46-501): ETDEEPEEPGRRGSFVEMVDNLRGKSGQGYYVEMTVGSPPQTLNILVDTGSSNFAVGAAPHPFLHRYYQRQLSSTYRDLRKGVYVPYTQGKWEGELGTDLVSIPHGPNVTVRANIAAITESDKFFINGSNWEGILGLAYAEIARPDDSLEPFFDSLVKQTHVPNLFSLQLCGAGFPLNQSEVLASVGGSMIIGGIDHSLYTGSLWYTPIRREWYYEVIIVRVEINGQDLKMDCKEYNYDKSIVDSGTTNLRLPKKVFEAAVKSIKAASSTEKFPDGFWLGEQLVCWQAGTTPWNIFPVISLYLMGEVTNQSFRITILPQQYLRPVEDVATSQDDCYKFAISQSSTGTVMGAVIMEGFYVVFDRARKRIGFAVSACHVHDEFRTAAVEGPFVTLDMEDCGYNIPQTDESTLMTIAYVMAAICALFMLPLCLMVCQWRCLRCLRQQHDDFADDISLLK

Row | SMILES | IC50
1 | COc1cnc(C(=O)Nc2ccc(F)c([C@@]3(C(F)F)N=C(N)O[C@@H]4CC(F)(F)C[C@@H]43)c2)cn1 [Example 42, 5-Methoxy-pyrazine-2-carboxylic acid [(S)-3-((1R,2R)-2-amino-4-difluoromethyl-6,6-difluoro-4,4a,5,6,7,7a-hexahydro-cyclopenta[e][1,3]oxazin-4-yl)-4-fluoro-phenyl]-amide] | 30 nM
2 | NC1=N[C@](CF)(c2cc(NC(=O)c3cnc(C(F)F)cn3)ccc2F)[C@H]2CC(F)(F)C[C@H]2O1 [Example 24, 5-Difluoromethyl-pyrazine-2-carboxylic acid [(S)-3-((1R,2R)-2-amino-6,6-difluoro-4-fluoromethyl-4,4a,5,6,7,7a-hexahydro-cyclopenta[e][1,3]oxazin-4-yl)-4-fluoro-phenyl]-amide] | 7.9 nM
3 | NC1=N[C@](CF)(c2cc(NC(=O)c3ccc(F)cn3)ccc2F)[C@H]2CC(F)(F)C[C@H]2O1 [Example 7, 5-Fluoro-pyridine-2-carboxylic acid [(S)-3-((1R,2R)-2-amino-6,6-difluoro-4-fluoromethyl-4,4a,5,6,7,7a-hexahydro-cyclopenta[e][1,3]oxazin-4-yl)-4-fluoro-phenyl]-amide] | 16.6 nM
4 | N#Cc1ccc(C(=O)Nc2ccc(F)c([C@@]3(CF)N=C(N)O[C@@H]4CC(F)(F)C[C@@H]43)c2)nc1 [Example 3, 5-Cyano-pyridine-2-carboxylic acid [(S)-3-((1R,2R)-2-amino-6,6-difluoro-4-fluoromethyl-4,4a,5,6,7,7a-hexahydro-cyclopenta[e][1,3]oxazin-4-yl)-4-fluoro-phenyl]-amide] | 1.5 nM
5 | N#Cc1ccc(C(=O)Nc2ccc(F)c([C@@]3(C(F)F)N=C(N)O[C@@H]4CC(F)(F)C[C@@H]43)c2)nc1 [Example 36, 5-Cyano-pyridine-2-carboxylic acid [(S)-3-((1R,2R)-2-amino-4-difluoromethyl-6,6-difluoro-4,4a,5,6,7,7a-hexahydro-cyclopenta[e][1,3]oxazin-4-yl)-4-fluoro-phenyl]-amide] | 14.5 nM
